Results from PMC9374744, “Structural basis for receptor selectivity and inverse agonism in S1P5 receptors” (Nature Communications, 2022).
Values joined by “and” are separate entries in the source; they are usually repeats but may differ in a detail not shown here. Equal entries are not always repeated.

Assays:
[1] = target: human S1P5 V115A mutant (Homo sapiens, UniProt Q9H228, V115A); assay: BRET-based cAMP Gi signaling assay, S1P5 V115A; settings: V115A, Suppl. Fig. 6e
[2] = target: human WT S1P5 receptor (Homo sapiens, UniProt Q9H228); assay: BRET-based cAMP (EPAC biosensor) Gi signaling assay, WT S1P5; settings: WT, Suppl. Fig. 6e
[3] = target: human S1P5 T79A mutant (Homo sapiens, UniProt Q9H228, T79A); assay: BRET-based cAMP Gi signaling assay, S1P5 T79A; settings: T79A, Suppl. Fig. 6c
Chain of human S1P5 T79A mutant (Q9H228 whole entry T79A): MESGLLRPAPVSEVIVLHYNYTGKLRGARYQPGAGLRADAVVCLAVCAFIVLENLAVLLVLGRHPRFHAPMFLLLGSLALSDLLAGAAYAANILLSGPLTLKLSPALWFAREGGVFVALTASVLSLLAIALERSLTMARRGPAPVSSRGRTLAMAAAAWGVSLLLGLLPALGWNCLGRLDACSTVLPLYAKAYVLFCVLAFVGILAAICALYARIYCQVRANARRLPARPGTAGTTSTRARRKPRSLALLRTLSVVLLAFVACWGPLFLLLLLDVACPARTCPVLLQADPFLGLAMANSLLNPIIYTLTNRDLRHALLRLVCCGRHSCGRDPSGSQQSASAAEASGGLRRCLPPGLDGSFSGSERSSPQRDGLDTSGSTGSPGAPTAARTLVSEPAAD

Chain of human S1P5 V115A mutant (Q9H228 whole entry V115A): as the sequence (Q9H228 whole entry T79A) above, with A79T, V115A counted along it
Chain of human WT S1P5 receptor (Q9H228 whole entry): as the sequence (Q9H228 whole entry T79A) above, with A79T counted along it

## CCCCCCCCCCCCC/C=C/[C@@H](O)[C@@H](N)COP(=O)(O)O [S1P, sphingosine-1-phosphate]
[1]; S1P 12500 nM
  BRET signal, raw replicate readings: 0.7675
[1]; S1P 25000 nM
  BRET signal, raw replicate readings: 0.7654 and 0.7708 and 0.7701 and 0.7667 and 0.7652 and 0.763 and 0.7734 and 0.7704 and 0.7743
[2]; S1P 0.685185 nM
  BRET signal, raw replicate readings: 0.7239 and 0.7229 and 0.7227 and 0.7322 and 0.7297 and 0.7339 and 0.7264 and 0.7321 and 0.7345
[2]; S1P 2.05556 nM
  BRET signal, raw replicate readings: 0.7237 and 0.7264 and 0.7244 and 0.734 and 0.7307 and 0.7332 and 0.7317 and 0.7311 and 0.7362
[2]; S1P 6.16667 nM
  BRET signal, raw replicate readings: 0.7266 and 0.7231 and 0.7269 and 0.7291 and 0.734 and 0.731 and 0.7324 and 0.7315 and 0.7331
[2]; S1P 18.5 nM
  BRET signal, raw replicate readings: 0.7325 and 0.7286 and 0.7291 and 0.731 and 0.733 and 0.7374 (2×) and 0.7372 and 0.7364
[2]; S1P 55.5 nM
  BRET signal, raw replicate readings: 0.7419 and 0.743 and 0.7446 and 0.7524 and 0.7535 and 0.7545 and 0.7491 and 0.7497 (2×)
[2]; S1P 185 nM
  BRET signal, raw replicate readings: 0.7589 and 0.7571 and 0.7588 and 0.7688 and 0.7682 and 0.766 and 0.76 and 0.7599 and 0.7596
[2]; S1P 781.25 nM
  BRET signal, raw replicate readings: 0.7647 and 0.7661 and 0.7611 and 0.7735 and 0.7751 and 0.7748 and 0.7643 and 0.7625 and 0.7654
[2]; S1P 3125 nM
  BRET signal, raw replicate readings: 0.7721 and 0.769 and 0.7694 and 0.7819 and 0.7829 and 0.7848 and 0.7658 and 0.7706 and 0.7596
[2]; S1P 12500 nM
  BRET signal, raw replicate readings: 0.7775 and 0.7718 and 0.7733 and 0.7869 and 0.7878 and 0.7756 and 0.7691 and 0.7737 and 0.7605
[2]; S1P 25000 nM
  BRET signal, raw replicate readings: 0.7765 and 0.7709 and 0.7762 and 0.7879 and 0.7898 and 0.785 and 0.7721 and 0.7678 and 0.7681
[3]; [S1P] 0.228395 nM
  BRET signal, raw replicates: 0.728 and 0.7297 and 0.7309 and 0.7306 and 0.7448 and 0.7165 and 0.733 and 0.732 and 0.7327
[3]; [S1P] 0.685185 nM
  BRET signal, raw replicates: 0.7302 and 0.7321 and 0.7319 and 0.7287 and 0.7311 and 0.7348 and 0.7332 and 0.7318 and 0.7294
[3]; [S1P] 2.05556 nM
  BRET signal, raw replicates: 0.7333 and 0.7313 and 0.7311 and 0.7385 and 0.7367 and 0.733 and 0.7328 and 0.7316 and 0.7345
[3]; [S1P] 6.16667 nM
  BRET signal, raw replicates: 0.7337 and 0.7364 and 0.7232 and 0.7384 and 0.7383 and 0.7348 and 0.7304 and 0.7359 and 0.7321
[3]; [S1P] 18.5 nM
  BRET signal, raw replicates: 0.7347 (2×) and 0.7375 and 0.7387 and 0.7386 and 0.7311 and 0.7341 and 0.7354 and 0.7312
[3]; [S1P] 55.5 nM
  BRET signal, raw replicates: 0.7438 and 0.7423 (2×) and 0.7417 and 0.7457 and 0.7434 and 0.7489 and 0.7415 and 0.7424
[3]; [S1P] 185 nM
  BRET signal, raw replicates: 0.7491 (2×) and 0.7494 and 0.7531 and 0.7514 and 0.7551 and 0.7506 and 0.752 and 0.7559
[3]; [S1P] 781.25 nM
  BRET signal, raw replicates: 0.7686 and 0.7529 and 0.774 and 0.7668 (2×) and 0.7667 and 0.7673 and 0.7649 and 0.7637
[3]; [S1P] 3125 nM
  BRET signal, raw replicates: 0.7697 and 0.7671 and 0.7674 and 0.7739 and 0.7792 and 0.7768 and 0.7709 (2×) and 0.7684
[3]; [S1P] 12500 nM
  BRET signal, raw replicates: 0.7734 and 0.7682 and 0.7706 and 0.7812 and 0.7771 and 0.7806 and 0.7763 and 0.7799 and 0.7701
